Reference: the NIST ThermoML archive (doi:10.1016/j.jct.2016.06.034)

Experiment: mn = molality of the nth substance listed, in mol/kg
Details: for mass density / electrical conductivity / speed of sound: 84.5 kPa, Liquid; for mass density: Vibrating tube method; for surface tension liquid-gas: platinum plate method; for electrical conductivity: Alternating current cell with electrodes; for speed of sound: Frequency=3 MHz, Sing-around technique in a fixed-path interferometer

CCCCCCCCCCn1cc[n+](C)c1.[Br-] [1-decyl-3-methylimidazolium bromide] + O
Details	electrical conductivity [S/m]	mass density [kg/m3]	speed of sound [m/s]	surface tension liquid-gas [mN/m]
303.15 K, m1 = 0.0095	–	996.005	–	–
303.15 K, m1 = 0.01379	–	996.169	–	–
303.15 K, m1 = 0.01652	–	996.273	–	–
303.15 K, m1 = 0.02179	–	996.475	–	–
303.15 K, m1 = 0.02615	–	996.639	–	–
303.15 K, m1 = 0.03106	–	996.825	–	–
303.15 K, m1 = 0.03338	–	996.912	–	–
303.15 K, m1 = 0.03819	–	997.092	–	–
303.15 K, m1 = 0.0406	–	997.186	–	–
303.15 K, m1 = 0.04332	–	997.276	–	–
303.15 K, m1 = 0.04614	–	997.377	–	–
303.15 K, m1 = 0.05515	–	997.672	–	–
303.15 K, m1 = 0.06396	–	997.957	–	–
303.15 K, m1 = 0.07815	–	998.413	–	–
303.15 K, m1 = 0.122	–	999.792	–	–
303.15 K, m1 = 0.1726	–	1001.35	–	–
303.15 K, m1 = 0.2247	–	1002.91	–	–
303.15 K, m1 = 0.2539	–	1003.77	–	–
308.15 K, m1 = 1e-05	0.000218	–	–	–
308.15 K, m1 = 3e-05	0.000397	–	–	–
308.15 K, m1 = 4e-05	0.000606	–	–	–
308.15 K, m1 = 7e-05	0.000959	–	–	–
308.15 K, m1 = 0.0001	0.00133	–	–	–
308.15 K, m1 = 0.00013	0.00169	–	–	–
308.15 K, m1 = 0.00017	0.00228	–	–	–
308.15 K, m1 = 0.00024	0.0032	–	–	–
308.15 K, m1 = 0.00039	0.0051	–	–	–
308.15 K, m1 = 0.00069	0.00888	–	–	–
308.15 K, m1 = 0.00098	0.0124	–	–	–
308.15 K, m1 = 0.0014	0.0178	–	–	–
308.15 K, m1 = 0.00242	0.0302	–	–	–
308.15 K, m1 = 0.00326	0.0401	–	–	–
308.15 K, m1 = 0.00348	0.0427	–	–	–
308.15 K, m1 = 0.0063	0.0752	–	–	–
308.15 K, m1 = 0.00691	–	–	–	46.2
308.15 K, m1 = 0.00928	0.108	–	–	–
308.15 K, m1 = 0.0095	–	994.377	1521.3	–
308.15 K, m1 = 0.01212	0.139	–	–	–
308.15 K, m1 = 0.01368	–	–	–	40.98
308.15 K, m1 = 0.01379	–	994.536	1522	–
308.15 K, m1 = 0.01499	0.169	–	–	–
308.15 K, m1 = 0.01652	–	994.638	1522.4	–
308.15 K, m1 = 0.01731	0.193	–	–	–
308.15 K, m1 = 0.01851	–	–	–	39.3
308.15 K, m1 = 0.02003	0.22	–	–	–
308.15 K, m1 = 0.02179	–	994.831	1523.2	–
308.15 K, m1 = 0.02313	0.25	–	–	–
308.15 K, m1 = 0.0251	–	–	–	38.12
308.15 K, m1 = 0.02573	0.275	–	–	–
308.15 K, m1 = 0.02615	–	994.993	1523.7	–
308.15 K, m1 = 0.0282	0.298	–	–	–
308.15 K, m1 = 0.03065	0.321	–	–	–
308.15 K, m1 = 0.03094	–	–	–	37.39
308.15 K, m1 = 0.03106	–	995.17	1524.4	–
308.15 K, m1 = 0.03312	0.343	–	–	–
308.15 K, m1 = 0.03338	–	995.253	1524.7	–
308.15 K, m1 = 0.03447	–	–	–	36.95
308.15 K, m1 = 0.03589	0.367	–	–	–
308.15 K, m1 = 0.03819	–	995.428	1525.4	–
308.15 K, m1 = 0.03832	0.388	–	–	–
308.15 K, m1 = 0.04053	0.406	–	–	–
308.15 K, m1 = 0.0406	–	995.52	1525.5	–
308.15 K, m1 = 0.04063	–	–	–	36.49
308.15 K, m1 = 0.04223	0.419	–	–	–
308.15 K, m1 = 0.04332	–	995.61	1525.8	–
308.15 K, m1 = 0.04385	0.429	–	–	–
308.15 K, m1 = 0.04569	0.439	–	–	–
308.15 K, m1 = 0.04614	–	995.708	1526	–
308.15 K, m1 = 0.0479	–	–	–	36.69
308.15 K, m1 = 0.04793	0.449	–	–	–
308.15 K, m1 = 0.04988	0.457	–	–	–
308.15 K, m1 = 0.05063	–	–	–	37.17
308.15 K, m1 = 0.05219	–	–	–	37.66
308.15 K, m1 = 0.05236	0.466	–	–	–
308.15 K, m1 = 0.05506	–	–	–	37.95
308.15 K, m1 = 0.05515	–	995.996	1526.1	–
308.15 K, m1 = 0.05533	0.477	–	–	–
308.15 K, m1 = 0.05718	0.483	–	–	–
308.15 K, m1 = 0.05941	0.492	–	–	–
308.15 K, m1 = 0.06163	0.498	–	–	–
308.15 K, m1 = 0.06382	0.507	–	–	–
308.15 K, m1 = 0.06396	–	996.274	1526.1	–
308.15 K, m1 = 0.07	–	–	–	38.27
308.15 K, m1 = 0.07815	–	996.719	1526	–
308.15 K, m1 = 0.09792	–	–	–	38.41
308.15 K, m1 = 0.122	–	998.067	1525.6	–
308.15 K, m1 = 0.1694	–	–	–	38.44
308.15 K, m1 = 0.1726	–	999.588	1525.1	–
308.15 K, m1 = 0.2247	–	1001.11	1524.7	–
308.15 K, m1 = 0.2268	–	–	–	38.2
308.15 K, m1 = 0.2539	–	1001.95	1524.4	–
